Results on two compounds are retold here after US8961959B2, “Glucosylceramide synthase inhibitors and therapeutic methods using the same” (The Regents of the University of Michigan, priority 2011, dated 2015).

As usually defined, the pIC50 is −log10 of the IC50, conventionally taken in molar units.

pIC50: −log10 of the molar value. Where two headings read alike, the source gives them in different places.

The target of experiment [1] is T1, glucosylceramide synthase (GCS) (Canis lupus familiaris, UniProt A0A8I3MXG6).
T1 construct: Madin-Darby canine kidney (MDCK) cell homogenates (120 μg of protein) were incubated; endogenous in cells; host or cells: MDCK (Madin-Darby canine kidney) cell homogenate
T1 sequence (A0A8I3MXG6 1-394): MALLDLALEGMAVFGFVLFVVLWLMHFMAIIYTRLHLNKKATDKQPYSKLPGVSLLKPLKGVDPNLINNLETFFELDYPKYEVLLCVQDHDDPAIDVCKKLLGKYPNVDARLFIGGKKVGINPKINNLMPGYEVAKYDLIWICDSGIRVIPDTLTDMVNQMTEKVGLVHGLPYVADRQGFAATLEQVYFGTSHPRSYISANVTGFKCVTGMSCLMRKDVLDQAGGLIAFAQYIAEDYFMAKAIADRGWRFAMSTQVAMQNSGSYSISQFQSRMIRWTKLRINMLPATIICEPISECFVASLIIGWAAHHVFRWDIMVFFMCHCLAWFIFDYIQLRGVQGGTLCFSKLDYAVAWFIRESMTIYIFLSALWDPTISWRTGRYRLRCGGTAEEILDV
The experiment in a line: GCS activity, broken cell (MDCK cell homogenate) assay. It counts as biochemical, canine. As for the experimental part:
Enzyme activity was measured as described previously (9). Madin-Darby canine kidney (MDCK) cell homogenates (120 μg of protein) were incubated with uridine diphosphate-[^3H]glucose (100,000 cpm) and liposomes consisting of 85 μg of octanoylsphingosine, 570 μg of dioleoylphosphatidylcholine, and 100 μg of sodium sulfatide in a 200 μL reaction mixture and kept for 1 h at 37° C.

For experiment [2], the system named is WT-MDCKII cells. The experiment in a line: GCS inhibition (GlcCer production) in whole wild-type MDCKII cells. It counts as cell-based, canine. The conditions noted are these: for pIC50: Canis lupus familiaris, MDCK-II, 24 h. The protocol:
Parental (WT-)MDCKII cells and MDCKII cells retrovirally transduced with human MDR-1 cDNA were obtained from the Netherlands Cancer Institute. Both cell lines were routinely maintained in medium consisting of Opti-MEM/F 12 (1:1), 5% FBS, 100 U/mL of penicillin, 100 μg/mL streptomycin and […] L-glutamine. MDCKII cells were newly thawed from frozen ampules every two months. Protein levels of MDR1 in MDR1-MDCKII cells were measured monthly, and MDR1-MDCKII cell passages were immediately terminated when a reduction of MDR1 levels was observed by Western blot using anti-human MDR1 monoclonal antibody (Abcam C219).
(§1) Stock solutions of water-insoluble glycosphingolipid inhibitors (100 mM) were prepared by dissolving each inhibitor into 100% ethanol as previously described (3). The inhibitor-ethanol solutions then were diluted 50× into 2 mM delipidated bovine serum albumin-phosphate buffered saline solution to make water-soluble glycosphingolipid inhibitor-bovine serum albumin complexes. The inhibitor-bovine serum album complexes were sterile-filtered and stored at −20° C. Prior to use, portions of the inhibitor-bovine serum albumin complexes were further diluted with Opti-F12 to make treatment solutions. Equal amounts of bovine serum albumin and ethanol were added into the control cultures. WT and MDR1-MDCKII cells (5×10^5) were seeded into 10-cm culture dishes containing 10 ml of Opti-F12 with 5% FBS. After 24 hours, the medium was replaced with fresh serum-free Opti-F12 medium, and cells were exposed to candidate GCS inhibitors at concentrations of 0, 1, 3, 10, 30, 100 and 300 nM for 24 hours.
(§2) Following inhibitor treatment, whole cellular lipids of wild type and MDR1-MDCKII cells were extracted as previously described in detail (10). Briefly, cells were washed with ice-cold phosphate buffered saline, fixed by methanol, and collected with rubber scraper. Chloroform was then added to yield a theoretical ratio of chloroform:methanol:water at 1:2:0.8 (v/v/v) to form a mono-phase. Cell debris and proteins were removed by centrifugation at 2200×g for 30 min. The supernatants were portioned by adding chloroform and 0.9% NaCl. The lower organic phases containing neutral glycosphingolipids lipids were washed with methanol and 0.9% NaCl, and subjected to base- and acid-hydrolysis (10). A portion of purified glycosphingolipids normalized to 100 nmol of total phospholipids was analyzed by high performance thin layer chromatography. The thin layer chromatography separations were processed twice. The plate pretreated with 1% sodium borate was first developed in a solvent system consisting of chloroform/methanol (98/2, v/v). After air drying, the plate was then developed in a solvent system containing chloroform/methanol/water (70/30/4, v/v/v). The levels of glucosylceramide were detected by charring with 8% cupric sulfate in 8% phosphoric acid, and quantified by densitometric scanning using ImageJ, NIH Image. Image data was analyzed, and the IC50 of each inhibitor was calculated using GraphPad Prism (version 5.03).

Experiment [3] deals with MDR1-MDCKII cells. The experiment in a line: GCS inhibition (GlcCer production) in MDCKII cells stably expressing human MDR1. It counts as cell-based, canine. The conditions noted are these: for pIC50: Canis lupus familiaris. The protocol:
Parental (WT-)MDCKII cells and MDCKII cells retrovirally transduced with human MDR-1 cDNA were obtained from the Netherlands Cancer Institute. Both cell lines were routinely maintained in medium consisting of Opti-MEM/F 12 (1:1), 5% FBS, 100 U/mL of penicillin, 100 μg/mL streptomycin and […] L-glutamine. MDCKII cells were newly thawed from frozen ampules every two months.
as §1, with “After 24 hours, the medium was replaced with fresh serum-free Opti-F12 medium, and cells were exposed to candidate GCS inhibitors at concentrations of 0, 1, 3, 10, 30, 100 and 300 nM for 24 hours.” left out
as §2, with “Image.” for “Image. Image data was analyzed, and the IC50 of each inhibitor was calculated using GraphPad Prism (version 5.03).”

The mark [4] stands for this setting: inhibition of GlcCer production in whole wild-type MDCKII cells, read-out: WT-MDCK IC50.

Consider `CCCCCCCC(=O)N[C@H](CN1CCCC1)[C@H](O)c1ccc2c(c1)OCCO2` [Compound 3a, N-((1R,2R)-1-(2,3-dihydrobenzo-[b][1,4]dioxin-6-yl)-1-hydroxy-3-(pyrrolidin-1-yl)propan-2-yl)octanamide, reference compound], for which the pIC50 is 6.83 in experiment [1]; 7.86 in experiment [2] (WT-MDCKII cells, read-out: IC50 for reduction in GlcCer levels, WT cells); 7.86 in experiment [2] (setting [4]); 7.50 in experiment [3] (MDR1-MDCKII cells, 24 h, read-out: IC50 for reduction in GlcCer levels, MDR1 expressing cells). For the same compound, the “potency in whole cells versus broken cells” value in experiment [2] (broken cell IC50 versus whole WT-MDCKII IC50) was ~10 fold. For the same compound, the MDR/WT in experiment [3] (ratio of MDR1-MDCKII IC50 divided by WT-MDCKII IC50) is listed as 2.3.

As to `O=C(CC1Cc2ccccc2C1)N[C@H](CN1CCCC1)[C@H](O)c1ccc2c(c1)OCCO2` [Compound 3h, 2-(2,3-dihydro-1H-inden-2-yl)-N-((1R,2R)-1-(2,3-dihydrobenzo[b][1,4]dioxin-6-yl)-1-hydroxy-3-(pyrrolidin-1-yl)propan-2-yl)acetamide], the pIC50 was 7.57 in experiment [1]; 7.82 in experiment [2] (setting [4]); 7.61 in experiment [3] (inhibition of GlcCer production in MDCKII cells stably expressing human MDR1, 24 h, read-out: MDR-MDCK IC50). Also, in experiment [1] (in words), the “inhibition of GCS” value is “low nanomolar concentrations”.
